One molecule from ChEMBL document CHEMBL1137418, “Neurosteroid analogues. 11. Alternative ring system scaffolds: gamma-aminobutyric acid receptor modulation and anesthetic actions of benz[f]indenes” (J Med Chem, 2006) can be followed below.

Active and inactive are the calls of the source. The rule behind the calls is not given here.

Test [1] concerns the target T1, GABA-A receptor; alpha-1/beta-2/gamma-2 (Rattus norvegicus) (UniProt P18508+P62813+P63138). Briefly: Activity at rat GABA-Aalpha1 receptor plus beta-2-gamma-2L expressed in Xenopus laevis oocyte assessed as ratio of GABA-mediated current in presence to absence of compound at 0.1 uM. Type of test: functional.
For test [2], the target named is T1, GABA-A receptor; alpha-1/beta-2/gamma-2 (Rattus norvegicus). Description: Activity at rat GABA-Aalpha1 receptor plus beta2gamma2L expressed in Xenopus laevis oocyte assessed as ratio of GABA-mediated current in presence to absence of compound at 1 uM. Type of test: functional.
Test [3] has the same target. Briefly: Activity at rat GABA-Aalpha1 receptor plus beta-2-gamma-2L expressed in Xenopus laevis oocyte assessed as ratio of GABA-mediated current in presence to absence of compound at 10 uM. Type of test: functional.
For test [4], the species on record is Xenopus laevis. Briefly: Loss of righting reflex in Xenopus laevis tadpole at 10 uM. Type of test: functional, organism-based.
The species entered for test [5] is Xenopus laevis. Briefly: Loss of swimming reflex in Xenopus laevis tadpole at 10 uM. Type of test: functional, organism-based.
Test [6] has as its target T1, GABA-A receptor; alpha-1/beta-2/gamma-2 (Rattus norvegicus). Description: Activity at rat GABA-Aalpha1 receptor plus beta-2-gamma-2L expressed in Xenopus laevis oocyte assessed as ratio of current evoked by compound alone in absence of GABA to current evoked by 2 uM GABA at 10 uM.

With `C[C@]12C[C@H]3CC[C@@H](CCO)CC3C[C@@H]1CCC2=O` (single isomer, unassigned; 1b), the Ratio in test [1] is 0.9; in test [2], 1.08; in test [3] it was 3.54; in test [6] it was -0.02. Besides, the result in the test listed under Xenopus laevis [4] and in the test filed under Xenopus laevis [5] was inactive.
